Source: US9511120B2, “Use of the angiotensin-(1-9) peptide or derivatives thereof, use of vectors overexpressing the ACE2 enzyme that produces angiotensin-(1-9) for preparing medicaments useful for preventing, reverting, inhibiting and/or reducing hypertension and/or inducing vasodilation” (PONTIFICA UNIVERSIDAD CATÓLICA DE CHILE, priority 2012, dated 2016)
Where no end group is shown, it is not given here.

How the values were obtained:
[1] = test system: TGFβ-1; assay: Goldblatt model: TGFβ-1 protein levels in the aortic wall; type: in vivo, rat; conditions: GB rats
Excerpt: (§1) Lewis normotensive rats (weight 150±10 g), which were separated randomly into the experimental hypertension model group or GB (Ocaranza et al. J. Hypertens. 20:413-20, 2002) or control group (S) were used. The latter corresponded to pseudo-operated animals. All animals were maintained under controlled conditions of light and darkness and had free access to food and water. Four weeks after surgery and at a blood pressure above 140 mmHg, GB rats were randomized for the chronic administration of angiotensin-(1-9) through an osmotic pump (602 ng kg^−1min^−1) via the jugular vein during two weeks. The animals were euthanized after 6 weeks post-surgery.
(§2) For the determination of collagen I and TGFβ-1, 30 μg and 50 μg of total proteins were used, respectively, diluted in SDS reducing buffer (50 mM tris-HCl, pH 7.4, NP-40 10%, NaCl 1M, Na deoxycholate 5%, EDTA 10 mg/mL, SDS 10%, aprotinin 1 mg/mL, leupeptin 0.1 mg/mL, PMSF 10 mM), they were then separated by SDS-PAGE gel electrophoresis 7%, and transferred to nitrocellulose membranes of […] to 300 mA for 1 h. The transfer of proteins was monitored by Ponceau red staining. […]

[2] = test system: hypertensive rats by clamping the renal artery (Goldblatt model); assay: Goldblatt model (GB, 2 kidneys, 1 clip): body weight, cardiac mass, systolic blood pressure; type: in vivo, rat
Excerpt: as §1
(§3) Systolic blood pressure (SBP) was measured by the tail plethysmographic method in the animals. To such end, rats were lightly anesthetized with ethyl ether. The measurement was performed once a week by researchers blind to the treatment (Ocaranza et al. J. Hypertens. 20:413-20, 2002).
(§4) The degree of cardiac hypertrophy (CH) was measured by the ratio of the cardiac mass (CM), the body mass (BM) and relative cardiac mass (RCM; [CM/BM]*100) (Ocaranza et al., J. Hypertens. 28:1054-1064, 2010).

[3] = test system: rat mesenteric arteries; assay: Contractility studies in perfused, pressurized mesenteric arteries; conditions: arteries with intact endothelium as compared to arteries without endothelium
Procedure: The change in diameter of rat resistance (mesenteric) arteries was determined, they were then perfused and pressurized under physiological conditions, in response to different substances, according to a methodology previously described (Gonzalez et al. Hypertension 45:853-9, 2005). Briefly, male rats (Sprague Dawley, 150-200 g) were euthanized for dissection of mesenteric vascular territory, avoiding direct manipulation of arterial or venous tissue. Mesenteric small arteries (200-300 micrometers) were isolated, surgically eliminating adventitial tissue under a zoom stereo microscope (Olympus SZ61). The arteries were perfused intraluminally into a thermoregulated bath at controlled pressure and flow, with perfusion solution (modified Krebs, KRB) of the following composition, in mmol/L: NaCl, 130; CaCl2, 2.5; NaHCO3, 25; MgSO4, 1.2; NaH2PO4, 1.2; KCl, 4.7; glucose, 5.5, pH 7.4. Before use, KRB was gassed with a mixture of 95% O2 and 5% CO2. For perfusion, the artery was cannulated with a glass micropipette (outer diameter 164μ), secured with 5-0 silk suture. The arteries were perfused with 10-20 μL/min KRB, so as to achieve transmural pressure of 60 mmHg. After a rest period of 20 minutes, each artery was incubated in the presence of a vasoconstrictor (100 μM phenylephrine) for two minutes and an endothelial NO production agonist (1 μM acetylcholine). […]

[4] = test system: collagen I; assay: Angiotensin II infusion model: collagen I protein levels in the aortic wall by Western blot; type: in vivo, rat; conditions: angiotensin II-hypertensive rats
Procedure: (§5) Rats were subjected to the model of angiotensin II infusion (Grobe et al.: Am. J. Physiol. 292: H736-42, 2007). The animals were separated randomly into the following experimental groups: controls (Sham or pseudo-operated), infused with angiotensin II (300 ng/kg min), infused with angiotensin II and angiotensin-(1-9) (300 ng/kg min and 602 ng/kg min, respectively), and then infused with angiotensin II, angiotensin-(1-9) and the angiotensin-(1-7) receptor antagonist, A779 (300 ng/kg min, 602 ng/kg min, and 100 ng/kg min, respectively). In all cases the pumps operated at a flow of 0.5 μL/h and were implanted in the right jugular vein through a catheter fitted in an intrascapular subcutaneous pocket under anesthesia with ketamine HCl/xylazine (35 and 7 mg/kg i.p., respectively), for a period of 14 days.
as §2

[5] = test system: cardiomyocyte hypertrophy induced by Ang II in vivo; assay: Angiotensin II infusion model: cardiomyocyte hypertrophy (area and perimeter); design: species or system rat
Procedure: as §5
The middle portion of the left ventricle (LV) was dehydrated at room temperature for 24 h in Bouin and then embedded in paraffin. Sections of 10-15 μm thick were taken and stained with hematoxylin-eosin, to be examined later in a light microscope in order to observe their general morphological characteristics. Cardiomyocyte size was determined according to Nakamura et al. (Circulation, 98:794-9, 1998). Briefly, images of the cells were captured using a Nikon DS Fi1 camera and projected on a monitor using a software program. The cardiomyocyte area and perimeter were measured and recorded, using the Nis-Element program (Ocaranza et al. J. Hypertens., 28:1054-64, 2010). All measurements were performed by a blinded observer, and at least 80 images of cells per animal, which were randomly selected, were analyzed.

[6] = test system: hypertensive rats by administration of angiotensin II; assay: Hypertension induced by angiotensin II infusion: body mass, cardiac mass, systolic blood pressure; type: in vivo, rat
Procedure: as §5, §3, §4
Four experimental groups of rats were established as described in Example 1. Group 1 corresponds to rats which were infused with saline (Sham). Group 2 corresponds to rats which were infused with only angiotensin II. Group 3 correspond to rats which were co-infused with angiotensin II and angiotensin-(1-9). And Group 4 corresponds to rats which were co-infused with angiotensin II, angiotensin-(1-9) and A779.

[7] = co-administered with angiotensin II

## DRVYIHPFH
[1]
  decrease of TGFβ-1 levels: 47%
[2]; GB rats, from week 1 after the administration, maintained 2 weeks
  decrease of systolic blood pressure: 15%
[2]; GB rats, two weeks treatment
  CM: 0.37 ± 0.02 ^ g
  RCM: 0.84 ± 0.04 mg/g
[2]; hypertensive rats vs. 400±1 in GB, not statistically significant
  RCM: 380±2
[2]; rats with HTN vs. untreated GB animals 0.93±0.04
  BW (as printed in text): 0.84 ± 0.03 g
[3]
  diameter of resistance arteries: increased in a dose-dependent manner
[4]
  prevention of the increase of collagen in the aortic wall: 60%
[5]; [7]
  reduction in cell area as compared to the group infused with angiotensin II alone: 20%
  reduction in cell perimeter as compared to the group infused with angiotensin II alone: 11%
[5]; left ventricle, two weeks
  cardiomyocyte cell area: 227±2 μm^2
  cardiomyocyte perimeter: 59.1±0.3 μm
[6]; 1st week of infusion
  SBP 1st week: 141 ± 9 mmHg
[6]; 2nd week of infusion
  SBP 2nd week: 139 ± 11 mmHg
[6]; baseline, tail plethysmography
  Initial SBP: 123 ± 11 mmHg
[6]; co-administration with angiotensin II
  decrease of SBP as compared to angiotensin II: 10%
[6]; rats, infusion for 14 days
  CM: 984 ± 26 mg
  RCM (MV/MC): 386 ± 36
